Test results reported in patent publication US11957684B2, “Treatment of heavy menstrual bleeding associated with uterine fibroids” (Sumitomo Pharma Switzerland GmbH, priority 2016, dated 2024).
Values joined by “and” are separate entries in the source; they are usually repeats but may differ in a detail not shown here. Identical values can stand only once.

Tested on: heavy menstrual bleeding associated with uterine fibroids
Test: Example 5A 12-week placebo-controlled study in uterine fibroids: efficacy (PBAC, volumes, NRS, UFS-QOL, anemia parameters)
Type: in vivo, human
Description: Study participants were Japanese women with HMB (heavy menstrual bleeding) associated with UF (uterine fibroids).
Only the largest myomas among those measurable at Visit 1 were measured throughout the study.
During the period between Visit 2 and 3, in which subjects must have experienced at least 1 regular menstrual cycle, the baseline values concerning efficacy evaluation, including PBAC scores and pain symptoms, were collected. The baseline PBAC score is the total PBAC score for the entire menstrual cycle immediately before Visit 3.
Visit 3 was on Days 1 to 5 of the second menstrual cycle after Visit 1. From Visits 3 to 7, subjects tried to visit the clinics in a fasted state and before taking the study drug.
When a dose was missed before breakfast, subjects took the study drug 30 minutes before either dinner or lunch on the same day.
Pain symptoms, other clinical symptoms and QOL were measured as secondary endpoints. Pain symptoms were evaluated in the patient diary from Visit 1 to the day before Visit 7 using the NRS score. The UFS-QOL score was used to evaluate other clinical symptoms and the QOL of subjects. Subjects completed the UFS-QOL questionnaire at Visits 3, 5, 6 and 7.
In particular, FIGS. 50-52 tabulate hemoglobin concentrations; FIG. 53 tabulates hematocrit percentages; FIG. 54 tabulates serum iron concentrations; and FIG. 55 tabulates ferritin concentrations.
PBAC scores were used in Example 5A, and provide an estimate of menstrual blood loss volume. The PBAC score was evaluated by having subjects record details related to menstrual blood loss on a PBAC score sheet distributed by the sponsor during the treatment period. […] These items represent the level of stained sanitary materials over the course of a menstrual cycle, with a total score ranging from 0 (none) to infinity. Higher scores indicate heavier blood loss. The PBAC score sheet also allows subjects to indicate: whether they experienced bleeding between periods that required sanitary protection; whether they passed clots, and if so, approximate size of the clots; whether they experienced episodes of flooding; and whether they required double protection (used both a pad and tampon simultaneously). As used in the PBAC score sheet of Example 5A, flooding is defined as overflowing, or staining, of clothing or underwear due to menstrual bleeding.
The total PBAC score was derived by summing points for each of the above.
All myoma and uterine volumes referred to herein were evaluated using transvaginal ultrasound. Specifically, the myoma volumes were calculated using the following formula: D1×D2×D3×π/6, where D1 is the longest diameter of the myoma; D2 is the longest diameter of the myoma at an angle perpendicular to D1; and D3 is the diameter of the myoma crossing the intersection of D1 and D2 perpendicular to the D1/D2 plane.

[1] = 10 mg, Week 6-12, listed as Relugolix
[2] = 10 mg, Week 12, listed as Relugolix
[3] = 20 mg, Week 6-12, listed as Relugolix
[4] = 20 mg, Week 12, listed as Relugolix
[5] = 40 mg, Week 6-12, listed as Relugolix
[6] = 40 mg, Week 12, listed as Relugolix

CONC(=O)Nc1ccc(-c2sc3c(c2CN(C)C)c(=O)n(-c2ccc(OC)nn2)c(=O)n3Cc2c(F)cccc2F)cc1 [Compound 1, N-(4-(1-(2,6-difluorobenzyl)-5-((dimethylamino)methyl)-3-(6-methoxy-3-pyridazinyl)-2,4-dioxo-1,2,3,4-tetrahydrothieno[2,3-d]pyrimidin-6-yl)phenyl)-N′-methoxyurea]
Amenorrhea (PBAC from Week 6 to 12 was 0), number of patients (10 mg (n = 48)): 8 n
complete response rate, uterine fibroids (10 mg or 20 mg): 21-44%
myoma volume (10 mg, Week 2): 116.68±152.833 cm^3
uterine volume (10 mg, Week 2): 305.07±265.810 cm^3
NRS score (10 mg, Week 2-6): 0.67±1.228
subjects who achieved amenorrhea (PBAC = 0) (10 mg, Week 2-6): 12.5%
subjects with total PBAC score <10 (10 mg, Week 2-6): 16.7%
NRS score (10 mg, Week 2-12): 0.63±1.217
subjects who achieved amenorrhea (PBAC = 0) (10 mg, Week 2-12): 10.4%
subjects with total PBAC score <10 (10 mg, Week 2-12): 12.5%
Fe value (serum iron) (10 mg, Week 4): 72.8 ± 40.58 µg/dL
Ht value (10 mg, Week 4): 39.48±3.327%
UFS-QOL HRQL total score (10 mg, Week 4): 11.28±10.342
UFS-QOL symptom severity score (10 mg, Week 4): 23.78±14.736
ferritin value (10 mg, Week 4): 14.71 ± 16.372 ng/mL
myoma volume (10 mg, Week 4): 90.89±108.009 cm^3
uterine volume (10 mg, Week 4): 258.10±171.703 cm^3
change of total PBAC score from baseline (10 mg, Week 6-12): −1.4±222.94
subjects who achieved amenorrhea (PBAC = 0) (10 mg, Week 6-12): 16.7%
subjects with total PBAC score <10 (10 mg, Week 6-12): 20.8%
total PBAC score (mean±SD) (10 mg, Week 6-12): 268.0±276.37
NRS score [1]: 0.6
subjects who achieved amenorrhea (PBAC = 0) [1]: (16.7) %
Fe value (serum iron) (10 mg, Week 8): 67.3 ± 34.74 µg/dL
Ht value (10 mg, Week 8): 39.43±3.154%
UFS-QOL HRQL total score (10 mg, Week 8): 13.39±13.179
UFS-QOL symptom severity score (10 mg, Week 8): 24.55±16.105
myoma volume (10 mg, Week 8): 97.47±117.339 cm^3
uterine volume (10 mg, Week 8): 259.64±190.452 cm^3
Fe value (serum iron) (10 mg, Week 12): 75.3 ± 46.94 µg/dL
Ht value (10 mg, Week 12): 39.37±3.639%
UFS-QOL HRQL total score (10 mg, Week 12): 13.01±13.270
UFS-QOL HRQL total, change from baseline (10 mg, Week 12): −1.61±10.586
UFS-QOL symptom severity score (10 mg, Week 12): 23.28±16.053
UFS-QOL symptom severity, change from baseline (10 mg, Week 12): −6.51±18.122
change of Fe value from baseline (10 mg, Week 12): 11.0 ± 42.94 µg/dL
change of Hb from baseline (10 mg, Week 12): 0.35 ± 1.055 g/dL
change of Ht value from baseline (10 mg, Week 12): 0.77±2.792%
change of ferritin value from baseline (10 mg, Week 12): -2.56 ± 6.833 ng/mL
ferritin value (10 mg, Week 12): 10.81 ± 9.489 ng/mL
myoma volume (10 mg, Week 12): 97.09±126.578 cm^3
percent change of myoma volume from baseline (10 mg, Week 12): −22.63±29.539%
percent change of uterine volume from baseline (10 mg, Week 12): −12.10±29.936%
uterine volume (10 mg, Week 12): 252.93±175.064 cm^3
UFS-QOL HRQL total, change from baseline [2]: −2
UFS-QOL symptom severity, change from baseline [2]: −7
change of Hb from baseline [2]: 0.3 g/dL
percent change of myoma volume from baseline [2]: −23%
percent change of uterine volume from baseline [2]: −12%
Amenorrhea (PBAC from Week 6 to 12 was 0), number of patients (20 mg (n = 56)): 21 n
myoma volume (20 mg, Week 2): 98.63±112.118 cm^3
uterine volume (20 mg, Week 2): 294.81±269.990 cm^3
NRS score (20 mg, Week 2-6): 0.48±0.970
subjects who achieved amenorrhea (PBAC = 0) (20 mg, Week 2-6): 33.9%
subjects with total PBAC score <10 (20 mg, Week 2-6): 42.9%
NRS score (20 mg, Week 2-12): 0.44±0.855
subjects who achieved amenorrhea (PBAC = 0) (20 mg, Week 2-12): 28.6%
subjects with total PBAC score <10 (20 mg, Week 2-12): 32.1%
Fe value (serum iron) (20 mg, Week 4): 77.4 ± 49.74 µg/dL
Ht value (20 mg, Week 4): 40.06±3.773%
UFS-QOL HRQL total score (20 mg, Week 4): 11.10±13.829
UFS-QOL symptom severity score (20 mg, Week 4): 23.12±14.327
ferritin value (20 mg, Week 4): 14.77 ± 11.536 ng/mL
myoma volume (20 mg, Week 4): 101.51±132.419 cm^3
uterine volume (20 mg, Week 4): 291.73±327.844 cm^3
NRS score (20 mg, Week 6-12): 0.35±0.618
change of total PBAC score from baseline (20 mg, Week 6-12): −153.0±194.83
subjects who achieved amenorrhea (PBAC = 0) (20 mg, Week 6-12): 38.2%
subjects with total PBAC score <10 (20 mg, Week 6-12): 43.6%
NRS score [3]: 0.4
subjects who achieved amenorrhea (PBAC = 0) [3]: (38.2) %
Fe value (serum iron) (20 mg, Week 8): 84.2 ± 49.42 µg/dL
Ht value (20 mg, Week 8): 40.39±3.389%
UFS-QOL HRQL total score (20 mg, Week 8): 9.54±10.904
UFS-QOL symptom severity score (20 mg, Week 8): 18.53±13.304
ferritin value (20 mg, Week 8): 16.34 ± 15.659 ng/mL
myoma volume (20 mg, Week 8): 86.34±103.084 cm^3
uterine volume (20 mg, Week 8): 290.93±413.549 cm^3
Fe value (serum iron) (20 mg, Week 12): 85.7 ± 44.40 µg/dL
Ht value (20 mg, Week 12): 40.54±3.003%
UFS-QOL HRQL total score (20 mg, Week 12): 9.63±12.735
UFS-QOL HRQL total, change from baseline (20 mg, Week 12): −2.11±10.529
UFS-QOL symptom severity score (20 mg, Week 12): 16.56±14.024
UFS-QOL symptom severity, change from baseline (20 mg, Week 12): −8.97±15.530
change of Fe value from baseline (20 mg, Week 12): 24.7 ± 53.53 µg/dL
change of Hb from baseline (20 mg, Week 12): 0.83 ± 1.161 g/dL
change of Ht value from baseline (20 mg, Week 12): 2.31±3.522%
change of ferritin value from baseline (20 mg, Week 12): 3.50 ± 10.229 ng/mL
ferritin value (20 mg, Week 12): 18.03 ± 14.427 ng/mL
myoma volume (20 mg, Week 12): 75.09±89.699 cm^3
percent change of myoma volume from baseline (20 mg, Week 12): −36.69±32.631%
percent change of uterine volume from baseline (20 mg, Week 12): −27.70±28.787%
uterine volume (20 mg, Week 12): 259.44±322.759 cm^3
UFS-QOL HRQL total, change from baseline [4]: −2
UFS-QOL symptom severity, change from baseline [4]: −9
change of Hb from baseline [4]: 0.8 g/dL
percent change of myoma volume from baseline [4]: −37%
percent change of uterine volume from baseline [4]: −28%
Amenorrhea (PBAC from Week 6 to 12 was 0), number of patients (40 mg (n = 55)): 40 n
myoma volume (40 mg, Week 2): 109.29±132.534 cm^3
uterine volume (40 mg, Week 2): 293.51±288.596 cm^3
NRS score (40 mg, Week 2-6): 0.29±0.564
subjects who achieved amenorrhea (PBAC = 0) (40 mg, Week 2-6): 54.5%
subjects with total PBAC score <10 (40 mg, Week 2-6): 65.5%
NRS score (40 mg, Week 2-12): 0.27±0.535
subjects with total PBAC score <10 (40 mg, Week 2-12): 61.8%
Fe value (serum iron) (40 mg, Week 4): 77.6 ± 44.81 µg/dL
Ht value (40 mg, Week 4): 39.44±4.012%
UFS-QOL HRQL total score (40 mg, Week 4): 11.31±12.082
UFS-QOL symptom severity score (40 mg, Week 4): 24.10±16.141
ferritin value (40 mg, Week 4): 15.14 ± 15.133 ng/mL
myoma volume (40 mg, Week 4): 100.04±139.060 cm^3
uterine volume (40 mg, Week 4): 267.74±275.256 cm^3
NRS score (40 mg, Week 6-12): 0.25±0.542
change of total PBAC score from baseline (40 mg, Week 6-12): −238.7±203.34
subjects who achieved amenorrhea (PBAC = 0) (40 mg, Week 6-12): 72.7% and 73%
subjects with total PBAC score <10 (40 mg, Week 6-12): 83.6%
total PBAC score (mean±SD) (40 mg, Week 6-12): 21.3±56.11
NRS score [5]: 0.2
subjects who achieved amenorrhea (PBAC = 0) [5]: (72.7) %
Fe value (serum iron) (40 mg, Week 8): 78.2 ± 41.91 µg/dL
Ht value (40 mg, Week 8): 40.23±3.620%
UFS-QOL HRQL total score (40 mg, Week 8): 11.20±12.279
UFS-QOL symptom severity score (40 mg, Week 8): 18.08±15.187
ferritin value (40 mg, Week 8): 18.10 ± 16.177 ng/mL
myoma volume (40 mg, Week 8): 86.01±120.639 cm^3
uterine volume (40 mg, Week 8): 224.91±227.442 cm^3
Fe value (serum iron) (40 mg, Week 12): 82.0 ± 36.93 µg/dL
Ht value (40 mg, Week 12): 40.53±3.307%
UFS-QOL HRQL total score (40 mg, Week 12): 9.52±10.885
UFS-QOL HRQL total, change from baseline (40 mg, Week 12): −5.52±15.871
UFS-QOL symptom severity score (40 mg, Week 12): 14.05±15.272
UFS-QOL symptom severity, change from baseline (40 mg, Week 12): −11.25±17.274
change of Fe value from baseline (40 mg, Week 12): 25.5 ± 44.43 µg/dL
change of Hb from baseline (40 mg, Week 12): 0.92 ± 1.183 g/dL
change of Ht value from baseline (40 mg, Week 12): 2.46±3.445%
change of ferritin value from baseline (40 mg, Week 12): 8.91 ± 13.131 ng/mL
ferritin value (40 mg, Week 12): 21.84 ± 21.509 ng/mL
myoma volume (40 mg, Week 12): 77.88±110.873 cm^3
percent change of myoma volume from baseline (40 mg, Week 12): −38.59±34.197%
percent change of uterine volume from baseline (40 mg, Week 12): −40.90±37.233%
uterine volume (40 mg, Week 12): 208.03±209.312 cm^3
UFS-QOL HRQL total, change from baseline [6]: −6
UFS-QOL symptom severity, change from baseline [6]: −11
change of Hb from baseline [6]: 0.9 g/dL
percent change of myoma volume from baseline [6]: −39%
percent change of uterine volume from baseline [6]: −41%
